Results published in patent publication US20210186960A1, “MODULATORS OF INDOLEAMINE 2,3-DIOXYGENASE” (GLAXOSMITHKLINE INTELLECTUAL PROPERTY DEVELOPMENT LIMITED, priority 2017, published 2021).

How the values were obtained:
[1] = target: T1, indoleamine 2, 3-dioxygenase (IDO1) (Homo sapiens, UniProt P14902); experiment: IDO1 PBMC RapidFire MS assay (kynurenine detection); type: cell-based; details: IFN-γ/LPS stimulated human PBMC, kynurenine by MS, 2 days; read-out: PBMC PXC50 (converted)
T1 construct: to induce the expression of indoleamine 2, 3-dioxygenase (IDO1); host or cells: human PBMC stimulated with IFN-gamma and LPS
T1 sequence (P14902 whole entry): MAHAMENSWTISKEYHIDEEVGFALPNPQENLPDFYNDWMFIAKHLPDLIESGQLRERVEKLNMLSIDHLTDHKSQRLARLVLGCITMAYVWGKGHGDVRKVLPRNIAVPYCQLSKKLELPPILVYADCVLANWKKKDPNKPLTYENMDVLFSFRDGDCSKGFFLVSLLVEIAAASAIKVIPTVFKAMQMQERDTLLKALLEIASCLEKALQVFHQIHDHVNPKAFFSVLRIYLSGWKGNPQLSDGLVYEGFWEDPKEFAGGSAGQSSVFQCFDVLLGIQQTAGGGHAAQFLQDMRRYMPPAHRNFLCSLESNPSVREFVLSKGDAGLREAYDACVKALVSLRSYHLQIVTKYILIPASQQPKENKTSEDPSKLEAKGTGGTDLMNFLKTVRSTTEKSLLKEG
Experimental: (§1) Compounds of the present invention were tested via high-throughput cellular assays utilizing detection of kynurenine via mass spectrometry and cytotoxicity as end-points. For the mass spectrometry and cytotoxicity assays, human peripheral blood mononuclear cells (PBMC) (PB003F; AllCells®, Alameda, Calif.) were stimulated with human interferon-γ (IFN-γ) (Sigma-Aldrich Corporation, St. Louis, Mo.) and lipopolysaccharide from Salmonella minnesota (LPS) (Invivogen, San Diego, Calif.) to induce the expression of indoleamine 2, 3-dioxygenase (IDO1). Compounds with IDO1 inhibitory properties decreased the amount of kynurenine produced by the cells via the tryptophan catabolic pathway. Cellular toxicity due to the effect of compound treatment was measured using CellTiter-Glo® reagent (CTG) (Promega Corporation, Madison, Wis.), which is based on luminescent detection of ATP, an indicator of metabolically active cells.
(§2) In preparation for the assays, test compounds were serially diluted 3-fold in
(§3) DMSO from a typical top concentration of 1 mM or 5 mM and plated at 0.5 μL in 384-well, polystyrene, clear bottom, tissue culture treated plates with lids (Greiner Bio-One, Kremsmünster, Austria) to generate 11-point dose response curves. Low control wells (0% kynurenine or 100% cytotoxicity) contained either 0.5 μL of DMSO in the presence of unstimulated (−IFN-γ/−LPS) PBMCs for the mass spectrometry assay or 0.5 μL of DMSO in the absence of cells for the cytotoxicity assay, and high control wells (100% kynurenine or 0% cytotoxicity) contained 0.5 μL of DMSO in the presence of stimulated (+IFN-γ/+LPS) PBMCs for both the mass spectrometry and cytotoxicity assays.
(§4) Frozen stocks of PBMCs were washed and recovered in RPMI 1640 medium (Thermo Fisher Scientific, Inc., Waltham, Mass.) supplemented with 10% v/v heat-inactivated fetal bovine serum (FBS) (Thermo Fisher Scientific, Inc., Waltham, Mass.), and 1× penicillin-streptomycin antibiotic solution (Thermo Fisher Scientific, Inc., Waltham, Mass.). The cells were diluted to 1,000,000 cells/mL in the supplemented RPMI 1640 medium. 50 μL of either the cell suspension, for the mass spectrometry assay, or medium alone, for the cytotoxicity assay, were added to the low control wells, on the previously prepared 384-well compound plates, resulting in 50,000 cells/well or 0 cells/well respectively. IFN- y and LPS were added to the remaining cell suspension at final concentrations of 100 ng/ml and 50 ng/ml respectively, and 50 μL of the stimulated cells were added to all remaining wells on the 384-well compound plates. The plates, with lids, were then placed in a 37 °C, 5% CO2 humidified incubator for 2 days.
(§5) Following incubation, the 384-well plates were removed from the incubator and allowed to equilibrate to room temperature for 30 minutes. For the cytotoxicity assay, CellTiter-Glo® was prepared according to the manufacturer's instructions, and 40 μL were added to each plate well. After a twenty minute incubation at room temperature, luminescence was read on an EnVision® Multilabel Reader (Perkin Elmer Inc., Waltham, Mass.). For the mass spectrometry assay, 10 μL of supernatant from each well of the compound-treated plates were added to 40 μL of acetonitrile, containing 10 μM of an internal standard for normalization, in 384-well, polypropylene, V-bottom plates (Greiner Bio-One, Kremsmunster, Austria) to extract the organic analytes. Following centrifugation at 2000 rpm for 10 minutes, 10 μL from each well of the acetonitrile extraction plates were added to 90 μL of sterile, distilled H2O in 384-well, polypropylene, V-bottom plates for analysis of kynurenine and the internal standard on the RapidFire 300 (Agilent Technologies, Santa Clara, Calif.) and 4000 QTRAP MS (SCIEX, Framingham, Mass.). MS data were integrated using Agilent Technologies' RapidFire Integrator software, and data were normalized for analysis as a ratio of kynurenine to the internal standard. […]

[2] = tested on: human peripheral blood mononuclear cells (PBMC); experiment: PBMC cytotoxicity assay (CellTiter-Glo); type: cell-based; details: pCC50, CellTiter-Glo, stimulated human PBMC, 2 days
Experimental: as §1, §2, §3, §4, §5

[3] = Rat oral PK studies of prodrugs at 5 mg/kg; type: in vivo; details: analyte as labelled
Experimental: Rat oral PK studies of prodrugs at 5 mg/kg dose (solution in 100% (40 mg oleic acid+25mg Tween 80+2 mL of PBS/fresh) at 0.5 mg/mL).

[4] = Plasma PK and tissue distribution after oral dosing of prodrug EXAMPLE 7 (5 mg/kg); type: in vivo; details: PO 5 mg/kg EXAMPLE 7 (prodrug), male Wistar Han rat, analyte as labelled
Experimental: Tissue Distribution of drug intermediate C4 from oral dosing of C4 and of intermediate C4 from oral dosing of example 7 in rats
• Wistar Han rat, 185-197 g, male, N=8, purchased from Beijing Vital River Co. LTD. Qualification No.: SCXK(J) 2016-0011 11400700240027. Fasted overnight and fed 4 hr post dose. PO: 5 mg/kg (10 mL/kg) via oral gavage(N=8). Sampling at 1, 4, 8 and 24 hr , 4 time points, terminal bleeding for plasma, liver, lymph nodes and spleen collected at each time point

[5] = after PO dose of 5 mg/kg example 6 in male Wistar Han rat

## CCCCCCCCCCCCCCCC(=O)OCC(COC(=O)CCCCCCCCCCCCCCC)OC(=O)CCCC(=O)O[C@H]1CC[C@H](N(CC(C)C)c2ccc([C@H](C)CC(=O)O)cc2Nc2cnc(Cl)cn2)CC1 [example 2, (R)-3-(4-((trans-4-((5-((1,3-bis(palmitoyloxy)propan-2-yl)oxy)-5-oxopentanoyl)oxy)cyclohexyl) (isobutyl)amino)-3-((5-chloropyrazin-2-yl)amino)phenyl)butanoic acid]
[1]
  IC50: 0.251 µM
[2]
  PBMC TOX PXC50: <5
[3]; after PO dose of 5 mg/kg example 2 in male Wistar Han rat
  DNAUC0_20: not detected

## CCCCCCCCCCCCCCCC(=O)OCC(COC(=O)CCCCCCCCCCCCCCC)OC(=O)CC(C)CC(=O)OCOC(=O)C[C@@H](C)c1ccc(N(CC(C)C)C2CCOCC2)c(Nc2ccc(Cl)nc2)c1 (stereo partly drawn) [example 6, 1-(1,3-bis(palmitoyloxy)propan-2-yl) 5-((((R)-3-(3-((6-chloropyridin-3-yl)amino)-4-(isobutyl(tetrahydro-2H-pyran-4-yl)amino)phenyl)butanoyl)oxy)methyl) 3-methylpentanedioate]
[1]
  IC50: 3.16 µM
[2]
  PBMC TOX PXC50: <5
[3]; [5]
  DNAUC0_20: not detected

## CCCCCCCCCCCCCCCC(=O)OCC(COC(=O)CCCCCCCCCCCCCCC)OC(=O)CCCC(=O)O[C@H]1CC[C@H](N(CC(C)C)c2ccc([C@H](C)CC(=O)O)cc2Nc2ccc(Cl)nc2)CC1 [example 1, (R)-3-(4-((trans-4-((5-((1,3-bis(palmitoyloxy)propan-2-yl)oxy)-5-oxopentanoyl)oxy)cyclohexyl) (isobutyl)amino)-3-((6-chloropyridin-3-yl)amino)phenyl)butanoic acid]
[1]
  IC50: 0.158 µM
[2]
  PBMC TOX PXC50: <5

## CC(C)CN(c1ccc([C@H](C)CC(=O)O)cc1Nc1ccc(Cl)nc1)C1CCOCC1 [intermediate C5]
[2]
  PBMC TOX PXC50: <5
[3]; [5]
  DNAUC0_20: 0.075 µg·h/mL

## CC(C)CN(c1ccc([C@H](C)CC(=O)O)cc1Nc1cnc(Cl)cn1)[C@H]1CC[C@H](O)CC1 [intermediate C3]
[2]
  PBMC TOX PXC50: <5

## CCCCCCCCCCCCCCCC(=O)OCC(COC(=O)CCCCCCCCCCCCCCC)OC(=O)CC(C)CC(=O)OCOC(=O)C[C@@H](C)c1ccc(N(CC(C)C)C2CCOCC2)c(Nc2cnc(Cl)cn2)c1 (stereo partly drawn) [example 7, 1-(1,3-bis(palmitoyloxy)propan-2-yl) 5-((((R)-3-(3-((5-chloropyrazin-2-yl)amino)-4-(isobutyl(tetrahydro-2H-pyran-4-yl)amino)phenyl)butanoyl)oxy)methyl) 3-methylpentanedioate]
[1]
  IC50: 1 µM
[2]
  PBMC TOX PXC50: <5
[3]; after PO dose of 5 mg/kg example 7 in male Wistar Han rat
  DNAUC0_20: not detected
[4]; 1 hr
  liver Concentration Mean: BQL
  liver Concentration individual: BQL
  lymph node Concentration Mean: BQL
  lymph node Concentration individual: BQL
  plasma Concentration Mean: BQL
  plasma Concentration individual: BQL
  spleen Concentration Mean: BQL
  spleen Concentration individual: BQL
[4]; 4 hr
  liver Concentration Mean: BQL
  liver Concentration individual: BQL
  lymph node Concentration Mean: BQL
  lymph node Concentration individual: BQL
  plasma Concentration Mean: BQL
  plasma Concentration individual: BQL
  spleen Concentration Mean: BQL
  spleen Concentration individual: BQL
[4]; 8 hr
  liver Concentration Mean: BQL
  liver Concentration individual: BQL
  lymph node Concentration Mean: BQL
  lymph node Concentration individual: BQL
  plasma Concentration Mean: BQL
  plasma Concentration individual: BQL
  spleen Concentration Mean: BQL
  spleen Concentration individual: BQL
[4]; 24 hr
  liver Concentration Mean: BQL
  liver Concentration individual: BQL
  lymph node Concentration Mean: BQL
  lymph node Concentration individual: BQL
  plasma Concentration Mean: BQL
  plasma Concentration individual: BQL
  spleen Concentration Mean: BQL
  spleen Concentration individual: BQL

## CC(C)CN(c1ccc([C@H](C)CC(=O)O)cc1Nc1ccc(Cl)nc1)[C@H]1CC[C@H](O)CC1 [intermediate C2, (R)-3-(3-((6-chloropyridin-3-yl)amino)-4-(((1r,4R)-4 hydroxycyclohexyl)(isobutyl)amino)-phenyl)butanoic acid]
[2]
  PBMC TOX PXC50: <5

## CCCCCCCCCCCCCCCC(=O)OCC(COC(=O)CCCCCCCCCCCCCCC)OC(=O)CC(C)CC(=O)Oc1cc(C)cc(C)c1C(C)(C)CC(=O)O[C@H]1CC[C@H](N(CC(C)C)c2ccc([C@H](C)CC(=O)O)cc2Nc2cnc(Cl)cn2)CC1 (stereo partly drawn) [example 5, (3R)-3-(4-((trans-4-((3-(2-((5-((1,3-bis(palmitoyloxy)propan-2-yl)oxy)-3-methyl-5-oxopentanoyl)oxy)-4,6-dimethylphenyl)-3-methylbutanoyl)oxy)cyclohexyl)(isobutyl)amino)-3-((5-chloropyrazin-2-yl)amino)phenyl)butanoic acid]
[1]
  IC50: 0.631 µM
[2]
  PBMC TOX PXC50: <5
[3]; after PO dose of 5 mg/kg example 5 in male Wistar Han rat
  DNAUC0_20: not detected

## CCCCCCCCCCCCCCCC(=O)OCC(COC(=O)CCCCCCCCCCCCCCC)OC(=O)CC(C)CC(=O)O[C@H]1CC[C@H](N(CC(C)C)c2ccc([C@H](C)CC(=O)O)cc2Nc2cnc(Cl)cn2)CC1 (stereo partly drawn) [example 4, (3R)-3-(4-((trans-4-((5-((1,3-bis(palmitoyloxy)propan-2-yl)oxy)-3-methyl-5-oxopentanoyl)oxy)cyclohexyl) (isobutyl)amino)-3-((5-chloropyrazin-2-yl)amino)phenyl)butanoic acid]
[1]
  IC50: 7.94 µM
[2]
  PBMC TOX PXC50: <5

## CCCCCCCCCCCCCCCC(=O)OCC(COC(=O)CCCCCCCCCCCCCCC)OC(=O)CC(C)CC(=O)O[C@H]1CC[C@H](N(CC(C)C)c2ccc([C@H](C)CC(=O)O)cc2Nc2ccc(Cl)nc2)CC1 (stereo partly drawn) [example 3, (3R)-3-(4-((trans-4-((5-((1,3-bis(palmitoyloxy)propan-2-yl)oxy)-3-methyl-5-oxopentanoyl)oxy)cyclohexyl) (isobutyl)amino)-3-((6-chloropyridin-3-yl)amino)phenyl)butanoic acid]
[1]
  IC50: 1.26 µM
[2]
  PBMC TOX PXC50: <5
